Experimental data from patent US6534516B1, “Androgen receptor modulator compounds and methods” (Ligand Pharmaceuticals Incorporated, priority 1996, dated 2003).

Assays:
human AR = target: T1, human AR (Homo sapiens, UniProt P10275); assay: cell-based; assay type: cell-based
T1 construct: expressed in transfected cells; host or cells: CV-1 cells (African green monkey kidney fibroblasts)
T1 sequence (P10275 1-920): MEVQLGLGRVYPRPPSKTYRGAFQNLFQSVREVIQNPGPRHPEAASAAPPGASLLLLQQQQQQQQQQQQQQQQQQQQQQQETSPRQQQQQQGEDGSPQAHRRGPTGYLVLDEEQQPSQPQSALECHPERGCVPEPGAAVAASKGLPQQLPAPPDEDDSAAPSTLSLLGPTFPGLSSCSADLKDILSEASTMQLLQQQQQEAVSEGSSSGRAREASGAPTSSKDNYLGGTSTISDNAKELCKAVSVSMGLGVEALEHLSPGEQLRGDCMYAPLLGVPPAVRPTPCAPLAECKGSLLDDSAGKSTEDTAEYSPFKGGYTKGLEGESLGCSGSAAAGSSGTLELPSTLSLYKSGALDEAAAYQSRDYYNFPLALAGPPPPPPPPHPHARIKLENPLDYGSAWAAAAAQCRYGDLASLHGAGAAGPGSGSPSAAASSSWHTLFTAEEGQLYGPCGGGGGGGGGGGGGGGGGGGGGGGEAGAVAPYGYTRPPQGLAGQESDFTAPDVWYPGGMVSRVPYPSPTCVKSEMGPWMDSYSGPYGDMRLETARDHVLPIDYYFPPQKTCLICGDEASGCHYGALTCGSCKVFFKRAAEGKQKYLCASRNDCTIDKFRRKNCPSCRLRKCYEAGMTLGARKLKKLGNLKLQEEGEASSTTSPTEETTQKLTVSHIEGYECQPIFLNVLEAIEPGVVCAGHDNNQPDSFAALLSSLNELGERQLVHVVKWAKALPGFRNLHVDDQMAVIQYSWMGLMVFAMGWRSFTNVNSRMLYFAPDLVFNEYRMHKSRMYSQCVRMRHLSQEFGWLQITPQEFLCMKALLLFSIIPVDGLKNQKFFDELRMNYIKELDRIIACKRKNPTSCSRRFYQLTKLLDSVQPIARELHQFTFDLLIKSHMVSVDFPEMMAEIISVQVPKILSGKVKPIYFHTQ
Source text: The co-transfection assay provides a method for identifying functional agonists and partial agonists which mimic, or antagonists which inhibit, the effect of native hormones, and quantifying their activity for responsive IR proteins. In this regard, the co-transfection assay mimics an in vivo system in the laboratory. Importantly, activity in the co-transfection assay correlates very well with known in vivo activity, such that the co-transfection assay functions as a qualitative and quantitative predictor of a tested compounds in vivo pharmacology. See, e.g., T. Berger et al. 41 J. Steroid Biochem. Molec.
CV-1 cells (African green monkey kidney fibroblasts) were cultured in the presence of Dulbecco's Modified Eagle Medium (DMEM) supplemented with 10% charcoal resin-stripped fetal bovine serum then transferred to 96-well microtiter plates one day prior to transfection.
The reporter plasmid, MTV-LUC, contains the cDNA for firefly luciferase (LUC) under control of the mouse mammary tumor virus (MTV) long terminal repeat, a conditional promoter containing an androgen response element. See e.g., Berger et al. supra. In addition, pRS-β-Gal, coding for constitutive expression of E. coli β-galactosidase (β-Gal), was included as an internal control for evaluation of transfection efficiency and compound toxicity.
Three to four replicates were used for each sample.
After 40 hours, the cells were washed with PBS, lysed with a Triton X-100-based buffer and assayed for LUC and β-Gal activities using a luminometer or spectrophotometer, respectively. For each replicate, the normalized response (NR) was calculated as:
where β-Gal rate=β-Gal•1×10^−5/β-Gal incubation time.

PR = target: T2, PR (Homo sapiens, UniProt P06401); assay: cell-based
T2 sequence (P06401 1-933): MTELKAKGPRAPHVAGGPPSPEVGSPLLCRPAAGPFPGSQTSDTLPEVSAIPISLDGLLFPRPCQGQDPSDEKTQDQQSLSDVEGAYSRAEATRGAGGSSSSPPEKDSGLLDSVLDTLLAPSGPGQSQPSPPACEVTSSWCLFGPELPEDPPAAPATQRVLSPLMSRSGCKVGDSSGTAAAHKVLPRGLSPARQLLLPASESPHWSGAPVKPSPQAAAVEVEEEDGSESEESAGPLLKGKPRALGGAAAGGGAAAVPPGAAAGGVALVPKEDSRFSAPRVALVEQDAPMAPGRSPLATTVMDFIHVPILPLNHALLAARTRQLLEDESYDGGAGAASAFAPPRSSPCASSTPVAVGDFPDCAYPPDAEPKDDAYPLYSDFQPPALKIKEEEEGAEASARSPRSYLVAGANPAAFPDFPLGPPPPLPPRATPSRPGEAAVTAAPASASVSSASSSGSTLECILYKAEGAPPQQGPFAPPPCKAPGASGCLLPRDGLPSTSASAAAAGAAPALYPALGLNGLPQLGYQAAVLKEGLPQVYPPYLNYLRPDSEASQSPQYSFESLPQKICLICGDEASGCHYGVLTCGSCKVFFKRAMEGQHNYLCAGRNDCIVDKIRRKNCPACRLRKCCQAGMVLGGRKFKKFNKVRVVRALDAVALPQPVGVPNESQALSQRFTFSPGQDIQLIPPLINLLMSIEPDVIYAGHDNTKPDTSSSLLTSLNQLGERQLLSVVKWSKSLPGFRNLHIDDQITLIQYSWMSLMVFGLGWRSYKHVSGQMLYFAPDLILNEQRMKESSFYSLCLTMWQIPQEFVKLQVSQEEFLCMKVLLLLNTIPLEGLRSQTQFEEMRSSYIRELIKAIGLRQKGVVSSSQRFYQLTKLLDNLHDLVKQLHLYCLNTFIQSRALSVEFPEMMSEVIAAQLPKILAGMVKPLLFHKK

Compound: CC1(C)CCc2cc3c(C(F)(F)F)c(F)c(=O)[nH]c3cc2N1 [Compound 105, 7-Fluoro-1,2,3,4-tetrahydro-2,2-dimethyl-6-trifluoromethyl-8-pyridono[5,6-g]quinoline]
- AR Agonist CV-1 Cells Efficacy (human AR): 39 ± 6%
- EC50 (human AR): 0.125 ± 0.028 µM
- AR Antagonist CV-1 Cells Efficacy (human AR; antagonist mode, DHT at its EC50, % of maximal inhibition, na = not active): 39 ± 6%
- IC50 (human AR; read-out: AR Antagonist CV-1 Cells Potency): 0.034 ± 0.014 µM
- AR activity profile (in words) (human AR; summary of Tables 1 and 2): mixed AR agonists/antagonists
- IC50 (PR): 0.16 µM
